Test results published in patent US20250009835A1, “PHARMACEUTICAL COMPOSITION AND HEALTH FUNCTIONAL FOOD FOR PREVENTION OR TREATMENT OF CANCER COMPRISING MIXED HERBAL EXTRACT” (H&O BIOSIS CO., LTD., priority 2021, published 2025).

How the values were obtained:
SNU475 cell line [1] = conditions: known property of the SNU475 cell line; cited from earlier work
[2] = test system: Huh7 and Hep3B cell lines; assay: Cell viability in hepatocellular carcinoma cell lines without drug resistance; type: cell-based; conditions: 0, 1, and 3 µM range, FIG. 4A
Procedure: (§1) For cell viability measurements on cancer cell lines, three hepatocellular carcinoma cell lines (Huh-7, Hep3B, and SNU475) were seeded in a 384-well plate at a density of 2,000 cells/40 μl/well. After incubation for 16 hours, the extract of the present invention was treated at a concentration of 10 μl/well, followed by incubation at 37° C. for 48 hours. After 48 hours, 40 μl/well of the medium was removed and 4% paraformaldehyde was added to be a 30 μl/well, followed by incubation at room temperature for 10 minutes. Thereafter, after washing with DPBS, nuclear staining was performed with Hoechst33342 at a concentration of […] at room temperature for 10 minutes. After washing twice with DPBS, images were acquired with Operetta. The cell viability was identified by counting the number of cells using Operetta software.

SNU475 cell line [3] = assay: Cell viability in anticancer drug-resistant cancer cells; type: cell-based; conditions: 0, 1, and 3 µM range, FIG. 4A
Procedure: as §1

Row | Structure (SMILES) | resistance of SNU475 to regorafenib (SNU475 cell line [1]) | anticancer effect of sorafenib in Huh7 and Hep3B [2] | anticancer effect of sorafenib in SNU475 (SNU475 cell line [3])
1 | CNC(=O)c1cc(Oc2ccc(NC(=O)Nc3ccc(Cl)c(C(F)(F)F)c3)c(F)c2)ccn1 [regorafenib] | strong resistance | – | –
2 | CNC(=O)c1cc(Oc2ccc(NC(=O)Nc3ccc(Cl)c(C(F)(F)F)c3)cc2)ccn1 [sorafenib] | – | anticancer effect was exhibited | exhibited resistance
